Measured values: patent publication US7968526B2, “Antisense oligonucleotides directed to ribonucleotide reductase R2 and uses thereof in the treatment of cancer” (Lorus Therapeutics Inc., priority 2003, dated 2011)
Entries after “also recorded” stand apart in the source; their conditions may differ.

What was measured:
Assay type in all cases: in vivo, human cells in mice
[1] = test system: A498 human kidney cancer cells; experiment: A498 kidney tumour xenograft in SCID mice, controls and chemotherapeutics (Example 7); details: oligonucleotides 10 mg/kg/2 days i.v., 5-FU 13 mg/kg/day×5, vinblastine 1 mg/kg/week, gemcitabine 100 mg/kg/week
Description: CD-1 athymic female nude mice, BALB/c nu/nu nude mice, SCID, and SCID beige mice were purchased from Charles River Laboratories (Montreal, Canada) and experiments were typically initiated when the mice were 6-7 weeks old. […] Each experimental group typically contained 10 mice. After the size of tumour reached a mean tumour volume of 50-100 mm^3, treatment was initiated. […] Anti-tumour activity was estimated by the measurement of tumour volume with a calliper at two-three day intervals. Tumour volume was calculated by a formula L×W×H/2, where L indicates length, W indicates width and H indicates height. Within 24 hours after the last treatment, the animals were sacrificed and tumour and body weights were measured. Results of statistical analyses of the data are presented as P values in the figure legends.
Three additional treatment groups received: 5-FU (13 mg/kg/day×5), vinblastine (1 mg/kg/week) and gemcitabine (100 mg/kg/week). […] Caliper measurements at 1-week intervals were used to calculate tumour volumes. Each point in FIG. 28C represents mean tumour volume calculated from 10 animals per experimental group (with the exception of SEQ ID NO: 1 which was 8 animals). […] After 54 days the mice were sacrificed and the A498 tumours weighed. Each bar represents the mean tumour weight and standard error calculated for each treatment group.

[2] = test system: Caki-1 human renal cancer cells; experiment: Caki-1 renal tumour xenograft, combination with 5-FU or vinblastin (1.3); details: Caki (renal), CD-1 mouse as printed; SEQ ID NO:1 10 mg/kg i.v. every other day; 5-FU 13 mg/kg/day i.p.; vinblastin 0.6 mg/kg/week i.p.
Description: All treatments were stopped at day 22. […] All treatments were stopped at day 32. […] All treatments were stopped at day 36.

[3] = test system: MDA-MB-231 human breast cancer cells; experiment: MDA-MB-231 breast tumour xenograft in CD-1 nude mice, combination with taxol or doxorubicin (1.7); details: MDA-MB-231 (breast), CD-1; SEQ ID NO:1 10 mg/kg i.v. every other day; Taxol 10 mg/kg i.v. weekly; doxorubicin 5 mg/kg i.v. weekly
Method: After 52 days the mice were sacrificed and the tumours weighed. […] Mitoxantrone was administered intravenously once at the beginning of the treatments at a dose of 2 mg/kg (FIG. 4A) or once a week for four weeks at a reduced dose of 0.8 mg/kg (FIG. 4B). All treatments were stopped at day 50 (FIG. 4A) or 48 (FIG. 4B), respectively. […] Mitoxantrone was administered intravenously once at the beginning of the treatments at a dose of 2 mg/kg (FIG. 5A) or once a week for four weeks at a reduced dose of 0.8 mg/kg (FIG. 5B). All treatments were stopped at day 42 (FIG. 5A) or 38 (FIG. 5B), respectively. […] A2058 is a metastatic melanoma cell line. […] All treatments were stopped at day 24. […] Taxol was administered intravenously once a week at a dose of 10 mg/kg for three (FIG. 7A) or four weeks (FIG. 7C). Doxorubicin was administered intravenously once a week at a dose of 5 mg/kg for first three weeks (FIG. 7A) or for two weeks (FIG. 7C). All treatments were stopped at day 33 (FIG. 7A) or at day 26 (FIG. 7C), respectively. […] In FIG. 7C, antitumour activities were estimated by the inhibition of tumour volume, which was measured with calipers. Each point represents mean tumour volume calculated from 10 animals per experimental group. […] Taxol was administered intravenously once a week for first three weeks and intraperitoneally once a week for next two weeks at a dose of 10 mg/kg. Cisplatin was administered intravenously once a week for first three weeks and intraperitoneally once a week for next two weeks at a dose of 4 mg/kg. All treatments were stopped at day 40. Antitumour activities were estimated by the inhibition of tumour volume, which was measured with caliper. Each point represents mean tumour volume calculated from 9 animals per experimental group.

SMILES | Effect on tumour growth (volume and weight) [1] | Tumour weight as % of saline control [2] [%] | Tumour weight as % of saline control [3] [%]
O=c1[nH]cc(F)c(=O)[nH]1 [5-FU, 5-fluorouracil] | ineffective in stabilization of the tumours; also recorded: tumours that were equal in volume and weight to tumours of saline-treated animals | 52 | –
COc1cccc2c1C(=O)c1c(O)c3c(c(O)c1C2=O)C[C@@](O)(C(=O)CO)C[C@@H]3O[C@H]1C[C@H](N)[C@H](O)[C@H](C)O1 [Doxorubicin] | – | – | 41
